In data set [1] the target is T1, M1 (Homo sapiens, UniProt P11229).
T1 construct: expressed in transfected cells
T1 sequence (P11229 1-460): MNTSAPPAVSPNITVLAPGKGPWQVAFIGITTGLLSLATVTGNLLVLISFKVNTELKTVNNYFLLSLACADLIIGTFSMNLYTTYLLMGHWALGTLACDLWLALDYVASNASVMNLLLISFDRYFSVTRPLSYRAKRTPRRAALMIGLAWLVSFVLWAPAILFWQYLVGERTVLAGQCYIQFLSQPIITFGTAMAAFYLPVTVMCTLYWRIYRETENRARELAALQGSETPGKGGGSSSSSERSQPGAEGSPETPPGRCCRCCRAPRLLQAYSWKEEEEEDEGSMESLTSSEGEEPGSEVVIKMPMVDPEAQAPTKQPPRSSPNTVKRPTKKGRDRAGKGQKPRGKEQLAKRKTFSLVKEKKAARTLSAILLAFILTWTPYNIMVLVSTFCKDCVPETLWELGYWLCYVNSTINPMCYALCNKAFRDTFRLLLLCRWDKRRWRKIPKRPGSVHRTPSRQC
In words: M1 PAM activity of oxidative metabolites. The note with it: in words. It is filed as cell-based. The protocol:
Procedures for Biological Experiments
Calcium mobilization assays:
All functional cell-based assays were performed in stable Chinese Hamster Ovary (CHO) cell lines constitutively expressing human M5 or human M1 receptors. For full muscarinic selectivity, CHO cells expressing human M3, human M2 plus Gqi5 or human M4 plus Gqi5 were used. Cells were plated at 15,000 cells per 20 µL per well in black 384-well, TC-treated, clear-bottomed plates (Greiner) in Ham’s F12 medium supplemented with 10% FBS and 20 mM HEPES. Cells were incubated overnight at 37 °C under 5% CO2. The following day, the medium was removed and replaced with 1.2 µM Fluo-4 AM (Invitrogen) in assay buffer (Hank’s Balanced Salt Solution supplemented with 20 mM HEPES and 2.5 mM Probenecid, pH 7.4) and the cells were incubated for 50 minutes at 37 °C under 5% CO2. Dye was then removed and replaced with 20 µL of fresh assay buffer. Test compounds at a 10 mM concentration in DMSO were serially diluted in DMSO (either 1:3 or 1:5 dilution) to create a 10-point concentration series. The DMSO solutions were then diluted in assay buffer resulting in compound solutions at 2-times the final assay concentration with the highest assay concentration of 30 µM. The compound plate, cell plate, and plates containing EC20 and EC80 acetylcholine concentrations were placed in a Hamamatsu FDSS 6000 or 7000 kinetic imaging plate reader equipped to measure Ex480/Em540 fluorescence. Data were collected at 1 frame per second. After 2 seconds of collecting baseline fluorescence, 20 µL of the compound solutions were added to the cell plate. This was followed by the addition of an EC20 concentration of acetylcholine at 142 seconds. […] The fluorescence signal was collected for a total of 300 seconds. […] Data were imported and analyzed in Dotmatics Informatics software. by normalizing all data in the individual kinetic traces to the initial fluorescence read. The magnitude of each agonist addition was then determined and normalized to the average maximum response. […] The IC50 determined using the EC80 of acetylcholine is the value reported. […]

Data set [2] is described as follows: Hepatocyte metabolite identification (human). It is filed as in vitro ADME. The conditions noted are these: human hepatocytes; for % Total Peak Area, oxidative metabolite formed: 2 from 1, 4 from 3, 6 from 5. The protocol: (§1) Prior to full characterization of deuterated analogues 3 and 5, they were incubated in rat, dog, monkey, and human hepatocytes, along with 1, to determine the amount of parent remaining, as well as the degree of undesired oxidative metabolites 2, 4, and 6 (Figure 2). […] For the gem-dideutero congener 3, metabolic stability was improved in vitro. […] Thus, in hepatocytes in vitro, the kinetic isotope effect engendered greater metabolic stability of the labile hot spot on the lactam. It remained to be seen if this effect would translate in vivo, but we first had to assess the impact of the deuterated analogues on molecular pharmacology, in vitro DMPK, standard low-dose in vivo DMPK and, if warranted, in vivo efficacy in a rat novel object recognition (NOR) behavioral assay.

Data set [3] is described as follows: Hepatocyte metabolite identification (monkey). Format: in vitro ADME. The conditions noted are these: monkey hepatocytes; for % Total Peak Area, oxidative metabolite formed: 2 from 1, 4 from 3, 6 from 5. As to the method: as §1
A short description of data set [4]: Hepatocyte metabolite identification (dog). Format: in vitro ADME. The note with it: dog hepatocytes; 2 from 1, 4 from 3, 6 from 5. As to the method:
as §1

The nature of data set [5]: Hepatocyte metabolite identification (rat). Format: in vitro ADME. The note with it: rat hepatocytes; 2 from 1, 4 from 3, 6 from 5. As to the method: as §1
Details of data set [6]: method as in doi:10.1002/alz.045339, doi:10.1016/j.jagp.2021.01.038. The note with it: humans, phase I, upon increasing dose of 1; cited from earlier work.
The nature of data set [7]: Dog MTD with pharmacokinetics study. Format: in vivo. The conditions noted are these: dog MTD; for ratio AUC (%) / ratio Cmax (%): 6 relative to 5; for AUC / Cmax: plasma. From the text: (§2) To this end, we prepared a 200 g lot of PAM 5 and performed, in parallel, a dog maximum tolerated dose (MTD) with a pharmacokinetics study and a 14-day rat exploratory toxicology and toxicokinetic study, quantifying plasma Cmax and AUC for both parent 5 and metabolite 6. […] Moreover, while exposure increased with dose, it was nonlinear. […] The series was terminated based on (1) poor and less than dose-proportional increases in systemic exposure, (2) lack of a kinetic isotope effect to diminish production of 6 in dogs and rats, and (3) strong likelihood of even higher concentrations of 6 to be present in man.

Data set [8] in a line: Rat 14-day exploratory toxicology and toxicokinetic study. It is filed as in vivo. The note with it: rat 14-day study; for ratio AUC (%) / ratio Cmax (%): 6 relative to 5.
Description: as §2

Where [9] appears, read: day 14, 300 mg/kg PO of 5, plasma.
[10] abbreviates: day 14, 750 mg/kg PO of 5, plasma.
The mark [11] stands for this setting: day 14, 1500 mg/kg PO of 5, plasma.

The structures appear in SMILES notation. Some results are limits rather than exact numbers.

Here are results for three molecules from publication PMC12006963, “Application of Deuterium in an M1 Positive Allosteric Modulator Back-Up Program: The Discovery of VU6045422” (ACS Chemical Neuroscience, 2025).

With `Cn1cc2c(-c3cc(F)c(CN4C(=O)c5cccnc5C4O)c(F)c3)cccc2n1` (stereo not shown) [compound 2], the “M1 PAM activity” value in data set [1] was “inactive”. In addition, the “% Total Peak Area, oxidative metabolite formed” value (“% Total Peak Area” below) in data set [2] worked out at 34.9%; in data set [3], 74.3%; in data set [4] it was 28.3%; in data set [5], 23.7%. Further, in data set [6], the “share of the total drug-related area under the curve (AUC)” value is reported as over 50%.
In the case of `[2H]C1(O)c2ncccc2C(=O)N1Cc1c(F)cc(-c2cccc3nn(C)cc23)cc1F` (stereo not shown) [compound 4], the “M1 PAM activity” value in data set [1] was “inactive”. The figures for the “reduction in oxidative metabolite production versus 2 from 1” value in data set [2] and in data set [3] were 50% and over 50%, respectively. The “% Total Peak Area” value in data set [2] is recorded as 15.2%; in data set [3], 30.3%; in data set [4], 5.5%; in data set [5] it was 7.8%.
In the case of `[2H]C1(O)c2ncccc2C(=O)N1Cc1c(F)cc(-c2cccc3nn(C([2H])([2H])[2H])cc23)cc1F` (stereo not shown) [compound 6], in data set [1], the “M1 PAM activity” value was “inactive”. In addition, the “% Total Peak Area” value came out at 4.9% in data set [2]; 21% in data set [3]; 21.0% in data set [3] (listed as VU6045587); 4.1% in data set [4]; 8.1% in data set [5]. Further, the “ratio AUC (%)” value in data set [7] (30 mg/kg PO of 5) is reported as 18%; in data set [7] (300 mg/kg PO of 5), 21%; in data set [7] (1000 mg/kg PO of 5) it was 19%; in data set [8] (day 14, 300 mg/kg PO of 5), 28%; in data set [8] (day 14, 750 mg/kg PO of 5) it was 23%; in data set [8] (day 14, 1500 mg/kg PO of 5) it was 28%. The “ratio Cmax (%)” value in data set [7] (30 mg/kg PO of 5) was 19%; in data set [7] (300 mg/kg PO of 5) it was 23%; in data set [7] (1000 mg/kg PO of 5) it was 17%; in data set [8] (day 14, 300 mg/kg PO of 5) it was 30%; in data set [8] (day 14, 750 mg/kg PO of 5), 23%; in data set [8] (day 14, 1500 mg/kg PO of 5) it was 32%. Besides, the figures for the AUC in data set [7] (30 mg/kg PO of 5), in data set [7] (300 mg/kg PO of 5) and in data set [7] (1000 mg/kg PO of 5) were 6240 ng·h/mL, 14100 ng·h/mL and 19200 ng·h/mL, respectively. The Cmax (as a rule, the highest concentration seen after dosing) in data set [7] (30 mg/kg PO of 5) worked out at 455 ng/mL; in data set [7] (300 mg/kg PO of 5), 818 ng/mL; in data set [7] (1000 mg/kg PO of 5) it was 972 ng/mL. Also, the values for the AUC at 14 days in data set [8] (setting [9]) and in data set [8] (setting [10]) were 89.5 µg·h/mL and 125 µg·h/mL, respectively. The results for the Cmax at 14 days in data set [8] (setting [9]), in data set [8] (setting [10]) and in data set [8] (setting [11]) were 6740 ng/mL, 7340 ng/mL and 9890 ng/mL, respectively. Also, the AUC – broadly, concentration integrated over time – at 14 day in data set [8] (setting [11]) is 143 µg·h/mL.
